How the values were obtained:
[1] = system: Tyrosine-protein kinase ABL1 (Homo sapiens), P00519 [F317L]
[2] = molecular target: Tyrosine-protein kinase ABL1 (Homo sapiens) (UniProt P00519)
[3] = molecular target: BMP-2-inducible protein kinase (Homo sapiens) (UniProt Q9NSY1)
[4] = molecular target: Mitotic checkpoint serine/threonine-protein kinase BUB1 (Homo sapiens) (UniProt O43683)
[5] = molecular target: Calcium/calmodulin-dependent protein kinase type II subunit alpha (Homo sapiens) (UniProt Q9UQM7)
[6] = molecular target: Cyclin-dependent kinase 13 (Homo sapiens) (UniProt Q14004)
[7] = molecular target: Tyrosine-protein kinase CSK (Homo sapiens) (UniProt P41240)
[8] = molecular target: Dual specificity tyrosine-phosphorylation-regulated kinase 1B (Homo sapiens) (UniProt Q9Y463)
[9] = system: Epidermal growth factor receptor (Homo sapiens), P00533 [L858R,T790M]
[10] = molecular target: Ephrin type-B receptor 2 (Homo sapiens) (UniProt P29323)
[11] = molecular target: Receptor tyrosine-protein kinase erbB-3 (Homo sapiens) (UniProt P21860)
[12] = molecular target: Fibroblast growth factor receptor 3 (Homo sapiens) (UniProt P22607)
[13] = molecular target: Tyrosine-protein kinase Fgr (Homo sapiens) (UniProt P09769)
[14] = molecular target: G protein-coupled receptor kinase 3 (Homo sapiens) (UniProt P35626)
[15] = molecular target: Serine/threonine-protein kinase haspin (Homo sapiens) (UniProt Q8TF76)
[16] = molecular target: Inhibitor of nuclear factor kappa-B kinase subunit alpha (Homo sapiens) (UniProt O15111)
[17] = molecular target: Inhibitor of nuclear factor kappa-B kinase subunit beta (Homo sapiens) (UniProt O14920)
[18] = molecular target: Tyrosine-protein kinase JAK3 (Homo sapiens) (UniProt P52333)
[19] = molecular target: Dual specificity mitogen-activated protein kinase kinase 2 (Homo sapiens) (UniProt P36507)
[20] = molecular target: Myosin light chain kinase (Homo sapiens) (UniProt Q32MK0)
[21] = molecular target: Mitogen-activated protein kinase kinase kinase 9 (Homo sapiens) (UniProt P80192)
[22] = molecular target: Muscle, skeletal receptor tyrosine-protein kinase (Homo sapiens) (UniProt O15146)
[23] = molecular target: Myosin light chain kinase 2, skeletal/cardiac muscle (Homo sapiens) (UniProt Q9H1R3)
[24] = molecular target: Serine/threonine-protein kinase Nek2 (Homo sapiens) (UniProt P51955)
[25] = molecular target: Phosphatidylinositol 4-phosphate 3-kinase C2 domain-containing subunit beta (Homo sapiens) (UniProt O00750)
[26] = system: Phosphatidylinositol 4,5-bisphosphate 3-kinase catalytic subunit alpha isoform (Homo sapiens), P42336 [I800L]
[27] = molecular target: Serine/threonine-protein kinase pim-2 (Homo sapiens) (UniProt Q9P1W9)
[28] = molecular target: Serine/threonine-protein kinase PLK3 (Homo sapiens) (UniProt Q9H4B4)
[29] = molecular target: Serine/threonine-protein kinase D2 (Homo sapiens) (UniProt Q9BZL6)
[30] = molecular target: Serine/threonine-protein kinase PRP4 homolog (Homo sapiens) (UniProt Q13523)
[31] = molecular target: Protein-tyrosine kinase 2-beta (Homo sapiens) (UniProt Q14289)
[32] = molecular target: RAF proto-oncogene serine/threonine-protein kinase (Homo sapiens) (UniProt P04049)
[33] = molecular target: Receptor-interacting serine/threonine-protein kinase 2 (Homo sapiens) (UniProt O43353)
[34] = molecular target: Ribosomal protein S6 kinase alpha-6 (Homo sapiens) (UniProt Q9UK32)
[35] = molecular target: NUAK family SNF1-like kinase 2 (Homo sapiens) (UniProt Q9H093)
[36] = molecular target: SRSF protein kinase 3 (Homo sapiens) (UniProt Q9UPE1)
[37] = molecular target: Dual specificity testis-specific protein kinase 1 (Homo sapiens) (UniProt Q15569)
[38] = molecular target: Serine/threonine-protein kinase tousled-like 2 (Homo sapiens) (UniProt Q86UE8)
[39] = molecular target: Wee1-like protein kinase (Homo sapiens) (UniProt P30291)
[40] = molecular target: Serine/threonine-protein kinase 32B (Homo sapiens) (UniProt Q9NY57)
[41] = molecular target: Mitogen-activated protein kinase kinase kinase 19 (Homo sapiens) (UniProt Q56UN5)
[42] = molecular target: 5-hydroxytryptamine receptor 1B (Homo sapiens) (UniProt P28222); conditions: Compound concentration 10.0 uM
[43] = molecular target: 5-hydroxytryptamine receptor 3A (Homo sapiens) (UniProt P46098); conditions: Compound concentration 10.0 uM
[44] = molecular target: Sodium-dependent serotonin transporter (Homo sapiens) (UniProt P31645); conditions: Compound concentration 10.0 uM
[45] = molecular target: Alpha-1D adrenergic receptor (Homo sapiens) (UniProt P25100); conditions: Compound concentration 10.0 uM
[46] = Compound concentration 1000.0 nM
[47] = Compound concentration 100.0 nM

Tyrosine-protein kinase Fgr (Homo sapiens), sequence (P09769 2-529 limits assumed): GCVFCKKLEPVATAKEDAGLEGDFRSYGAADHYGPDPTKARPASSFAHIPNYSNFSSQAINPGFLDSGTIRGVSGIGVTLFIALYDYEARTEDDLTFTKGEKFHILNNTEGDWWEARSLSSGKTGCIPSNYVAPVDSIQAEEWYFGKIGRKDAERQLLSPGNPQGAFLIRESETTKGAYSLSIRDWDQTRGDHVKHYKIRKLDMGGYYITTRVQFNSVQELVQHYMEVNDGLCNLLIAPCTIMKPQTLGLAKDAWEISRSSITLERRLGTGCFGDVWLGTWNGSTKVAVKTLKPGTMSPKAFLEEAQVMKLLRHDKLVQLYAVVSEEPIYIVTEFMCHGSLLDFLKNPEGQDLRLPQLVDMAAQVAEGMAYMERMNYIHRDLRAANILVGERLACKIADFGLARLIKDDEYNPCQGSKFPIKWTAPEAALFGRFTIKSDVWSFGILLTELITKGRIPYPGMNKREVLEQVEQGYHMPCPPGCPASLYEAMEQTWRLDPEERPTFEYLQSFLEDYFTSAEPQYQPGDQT
5-hydroxytryptamine receptor 1B (Homo sapiens), sequence (P28222 whole entry): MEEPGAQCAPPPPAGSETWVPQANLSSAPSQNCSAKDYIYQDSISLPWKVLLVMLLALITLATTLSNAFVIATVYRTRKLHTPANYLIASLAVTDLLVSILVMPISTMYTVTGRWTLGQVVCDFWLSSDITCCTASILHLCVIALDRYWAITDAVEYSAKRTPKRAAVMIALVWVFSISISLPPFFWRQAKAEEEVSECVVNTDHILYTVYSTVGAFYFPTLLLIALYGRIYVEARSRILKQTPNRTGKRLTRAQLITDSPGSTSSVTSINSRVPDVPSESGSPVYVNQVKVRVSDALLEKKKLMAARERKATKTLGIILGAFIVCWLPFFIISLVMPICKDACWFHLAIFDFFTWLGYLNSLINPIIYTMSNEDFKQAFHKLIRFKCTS
Calcium/calmodulin-dependent protein kinase type II subunit alpha (Homo sapiens), sequence (Q9UQM7 whole entry): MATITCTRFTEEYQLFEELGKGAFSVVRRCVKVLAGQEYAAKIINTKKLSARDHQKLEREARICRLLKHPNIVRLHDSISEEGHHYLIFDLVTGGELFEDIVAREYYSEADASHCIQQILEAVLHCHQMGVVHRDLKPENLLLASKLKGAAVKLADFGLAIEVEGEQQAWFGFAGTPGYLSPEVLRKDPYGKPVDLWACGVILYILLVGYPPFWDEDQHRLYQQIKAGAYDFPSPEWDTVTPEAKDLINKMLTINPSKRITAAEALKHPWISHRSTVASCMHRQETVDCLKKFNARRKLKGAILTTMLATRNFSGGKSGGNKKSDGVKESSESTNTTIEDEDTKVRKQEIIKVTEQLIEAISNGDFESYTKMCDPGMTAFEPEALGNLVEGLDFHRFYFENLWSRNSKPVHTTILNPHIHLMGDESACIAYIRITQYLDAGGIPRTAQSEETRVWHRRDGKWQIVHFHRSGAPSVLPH
Muscle, skeletal receptor tyrosine-protein kinase (Homo sapiens), sequence (O15146 whole entry): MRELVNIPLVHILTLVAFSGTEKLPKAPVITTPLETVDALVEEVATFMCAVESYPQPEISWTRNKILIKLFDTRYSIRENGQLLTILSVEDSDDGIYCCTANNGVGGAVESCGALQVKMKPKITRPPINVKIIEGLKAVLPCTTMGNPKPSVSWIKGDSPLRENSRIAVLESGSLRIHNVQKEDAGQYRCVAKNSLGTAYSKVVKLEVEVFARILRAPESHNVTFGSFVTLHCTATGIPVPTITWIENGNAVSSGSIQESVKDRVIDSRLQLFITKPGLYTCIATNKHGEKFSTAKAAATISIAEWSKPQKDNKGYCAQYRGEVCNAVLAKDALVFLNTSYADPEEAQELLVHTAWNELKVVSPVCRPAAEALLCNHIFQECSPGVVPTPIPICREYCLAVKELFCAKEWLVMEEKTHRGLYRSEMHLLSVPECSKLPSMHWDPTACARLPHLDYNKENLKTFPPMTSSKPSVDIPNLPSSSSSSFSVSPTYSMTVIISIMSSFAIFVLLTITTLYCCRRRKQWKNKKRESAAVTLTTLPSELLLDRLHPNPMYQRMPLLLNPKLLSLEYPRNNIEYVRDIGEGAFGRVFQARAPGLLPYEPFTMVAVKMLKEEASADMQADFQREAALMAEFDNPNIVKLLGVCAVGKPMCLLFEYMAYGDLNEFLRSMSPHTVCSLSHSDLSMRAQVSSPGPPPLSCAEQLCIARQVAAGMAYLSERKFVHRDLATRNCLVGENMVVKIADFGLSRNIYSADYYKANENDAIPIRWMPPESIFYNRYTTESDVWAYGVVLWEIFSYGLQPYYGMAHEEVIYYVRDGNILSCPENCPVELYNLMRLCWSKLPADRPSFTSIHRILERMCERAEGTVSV
Mitogen-activated protein kinase kinase kinase 9 (Homo sapiens), sequence (P80192 whole entry, looked up): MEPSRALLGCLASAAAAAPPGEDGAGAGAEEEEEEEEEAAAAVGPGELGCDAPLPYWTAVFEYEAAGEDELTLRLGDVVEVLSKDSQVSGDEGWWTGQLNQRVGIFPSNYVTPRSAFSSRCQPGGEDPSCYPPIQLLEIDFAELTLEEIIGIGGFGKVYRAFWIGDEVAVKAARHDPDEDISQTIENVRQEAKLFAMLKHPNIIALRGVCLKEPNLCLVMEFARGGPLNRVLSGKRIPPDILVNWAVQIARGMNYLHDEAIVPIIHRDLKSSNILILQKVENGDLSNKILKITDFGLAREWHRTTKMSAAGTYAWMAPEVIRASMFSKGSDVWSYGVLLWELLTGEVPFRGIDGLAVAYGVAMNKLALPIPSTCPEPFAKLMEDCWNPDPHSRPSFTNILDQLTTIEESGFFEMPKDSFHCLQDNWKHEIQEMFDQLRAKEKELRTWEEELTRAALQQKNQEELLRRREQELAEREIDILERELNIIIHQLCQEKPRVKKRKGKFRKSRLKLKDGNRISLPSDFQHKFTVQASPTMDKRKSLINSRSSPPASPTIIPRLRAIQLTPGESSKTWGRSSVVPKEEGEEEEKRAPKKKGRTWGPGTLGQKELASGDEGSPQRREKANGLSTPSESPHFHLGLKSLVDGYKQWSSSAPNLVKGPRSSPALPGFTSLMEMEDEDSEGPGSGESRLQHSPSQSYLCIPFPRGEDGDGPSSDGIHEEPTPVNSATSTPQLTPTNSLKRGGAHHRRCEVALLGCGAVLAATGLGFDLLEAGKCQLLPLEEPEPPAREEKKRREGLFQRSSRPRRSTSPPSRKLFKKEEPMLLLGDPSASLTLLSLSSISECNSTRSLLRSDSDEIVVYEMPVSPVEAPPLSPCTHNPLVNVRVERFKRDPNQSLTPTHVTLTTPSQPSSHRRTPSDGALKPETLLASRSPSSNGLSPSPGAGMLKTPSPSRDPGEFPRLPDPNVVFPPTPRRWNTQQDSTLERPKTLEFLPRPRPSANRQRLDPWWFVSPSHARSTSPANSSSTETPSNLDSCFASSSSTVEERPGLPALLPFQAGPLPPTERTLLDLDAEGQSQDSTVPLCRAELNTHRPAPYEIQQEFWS
Phosphatidylinositol 4-phosphate 3-kinase C2 domain-containing subunit beta (Homo sapiens), sequence (O00750 whole entry, the tested form may be a part, canonical isoform): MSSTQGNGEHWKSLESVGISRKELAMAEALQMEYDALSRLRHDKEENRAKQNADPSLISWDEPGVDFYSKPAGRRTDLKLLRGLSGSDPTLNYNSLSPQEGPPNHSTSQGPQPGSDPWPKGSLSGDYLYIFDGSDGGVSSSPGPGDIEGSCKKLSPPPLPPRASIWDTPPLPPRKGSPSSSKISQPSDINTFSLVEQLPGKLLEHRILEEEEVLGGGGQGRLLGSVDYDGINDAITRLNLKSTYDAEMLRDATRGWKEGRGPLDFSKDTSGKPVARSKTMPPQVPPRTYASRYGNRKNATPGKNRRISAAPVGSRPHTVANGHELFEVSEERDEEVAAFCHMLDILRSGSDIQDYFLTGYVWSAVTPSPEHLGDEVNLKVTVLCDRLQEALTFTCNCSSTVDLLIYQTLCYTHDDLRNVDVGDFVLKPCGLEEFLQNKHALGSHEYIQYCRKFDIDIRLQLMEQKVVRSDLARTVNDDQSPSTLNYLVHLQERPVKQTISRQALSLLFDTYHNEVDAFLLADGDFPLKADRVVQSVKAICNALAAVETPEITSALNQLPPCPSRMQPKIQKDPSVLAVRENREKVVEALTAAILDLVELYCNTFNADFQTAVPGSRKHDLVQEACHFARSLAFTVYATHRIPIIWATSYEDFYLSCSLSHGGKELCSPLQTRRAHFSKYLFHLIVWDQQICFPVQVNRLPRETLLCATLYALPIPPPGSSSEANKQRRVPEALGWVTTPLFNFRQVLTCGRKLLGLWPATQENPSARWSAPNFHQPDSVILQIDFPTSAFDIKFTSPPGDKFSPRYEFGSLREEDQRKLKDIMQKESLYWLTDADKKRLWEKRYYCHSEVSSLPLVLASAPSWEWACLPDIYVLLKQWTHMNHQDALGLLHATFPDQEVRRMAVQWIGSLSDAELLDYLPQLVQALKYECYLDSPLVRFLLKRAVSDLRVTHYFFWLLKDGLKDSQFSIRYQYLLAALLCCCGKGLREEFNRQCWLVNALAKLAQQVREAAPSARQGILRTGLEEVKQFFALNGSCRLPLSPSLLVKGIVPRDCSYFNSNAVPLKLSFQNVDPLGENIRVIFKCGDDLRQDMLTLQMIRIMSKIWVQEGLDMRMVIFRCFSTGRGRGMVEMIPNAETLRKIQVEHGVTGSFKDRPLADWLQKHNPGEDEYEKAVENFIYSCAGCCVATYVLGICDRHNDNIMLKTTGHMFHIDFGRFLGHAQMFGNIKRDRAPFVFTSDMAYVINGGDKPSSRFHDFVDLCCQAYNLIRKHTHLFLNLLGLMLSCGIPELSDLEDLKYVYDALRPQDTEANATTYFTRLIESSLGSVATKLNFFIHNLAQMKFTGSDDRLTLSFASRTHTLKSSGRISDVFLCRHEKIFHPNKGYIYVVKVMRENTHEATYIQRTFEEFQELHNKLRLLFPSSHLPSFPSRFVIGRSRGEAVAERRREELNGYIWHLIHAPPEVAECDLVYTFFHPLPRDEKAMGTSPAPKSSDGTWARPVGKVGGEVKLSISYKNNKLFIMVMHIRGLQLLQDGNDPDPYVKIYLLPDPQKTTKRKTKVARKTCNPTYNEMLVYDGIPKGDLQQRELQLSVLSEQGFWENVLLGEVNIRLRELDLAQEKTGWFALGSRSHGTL

CN(C)c1ncnc(-c2ccc3nc(Nc4cc(CN5CCN(C(=O)CC(F)(F)F)CC5)ccn4)[nH]c3c2)c1Cl [BAY-440]
active: residual activity [26, 46] 35% | residual activity [33, 46] 37% | residual activity [41, 46] 15%
inactive: residual activity [1, 46] 57% | residual activity [2, 46] 51% | residual activity [3, 46] 100% | residual activity [4, 46] 94% | residual activity [5, 46] 100% | residual activity [6, 46] 84% | residual activity [7, 46] 84% | residual activity [8, 46] 100% | residual activity [9, 46] 82% | residual activity [10, 46] 100% | residual activity [11, 46] 63% | residual activity [12, 46] 100% | residual activity [13, 46] 98% | residual activity [14, 46] 78% | residual activity [15, 46] 100% | residual activity [16, 46] 69% | residual activity [17, 46] 80% | residual activity [18, 46] 71% | residual activity [19, 46] 74% | residual activity [20, 46] 90% | residual activity [21, 46] 90% | residual activity [22, 46] 100% | residual activity [23, 46] 100% | residual activity [24, 46] 86% | residual activity [25, 46] 100% | residual activity [27, 46] 100% | residual activity [28, 46] 100% | residual activity [29, 46] 84% | residual activity [30, 46] 100% | residual activity [31, 46] 85% | residual activity [32, 46] 100% | residual activity [34, 46] 81% | residual activity [35, 46] 66% | residual activity [36, 46] 100% | residual activity [37, 46] 78% | residual activity [38, 46] 100% | residual activity [39, 46] 100% | residual activity [40, 46] 100% | inhibition [42] 6.15% | inhibition [43] 35.6% | inhibition [44] 9.9% | inhibition [45] 20.8%

C[C@H](c1ccnc(Nc2nc3ccc(-c4cc(N(C)C)ncn4)cc3[nH]2)c1)N1CCN(C(=O)CC(F)(F)F)CC1 [BAY-985]
inactive: residual activity [1, 47] 100% | residual activity [2, 47] 85% | residual activity [3, 47] 100% | residual activity [4, 47] 95% | residual activity [5, 47] 99% | residual activity [6, 47] 100% | residual activity [7, 47] 100% | residual activity [8, 47] 84% | residual activity [9, 47] 100% | residual activity [10, 47] 93% | residual activity [11, 47] 88% | residual activity [12, 47] 100% | residual activity [13, 47] 85% | residual activity [14, 47] 100% | residual activity [15, 47] 100% | residual activity [16, 47] 95% | residual activity [17, 47] 99% | residual activity [18, 47] 83% | residual activity [19, 47] 100% | residual activity [20, 47] 100% | residual activity [21, 47] 100% | residual activity [22, 47] 97% | residual activity [23, 47] 92% | residual activity [24, 47] 100% | residual activity [25, 47] 97% | residual activity [26, 47] 100% | residual activity [27, 47] 100% | residual activity [28, 47] 100% | residual activity [29, 47] 100% | residual activity [30, 47] 80% | residual activity [31, 47] 91% | residual activity [32, 47] 97% | residual activity [33, 47] 71% | residual activity [34, 47] 56% | residual activity [35, 47] 95% | residual activity [36, 47] 100% | residual activity [37, 47] 98% | residual activity [38, 47] 99% | residual activity [39, 47] 96% | residual activity [40, 47] 100% | inhibition [42] 11.5% | inhibition [43] 31.9% | inhibition [44] 21.6% | inhibition [45] 20.2%
active: residual activity [41, 47] 10%

— ChEMBL document CHEMBL4507318, “Data for DCP probe BAY-985” (2021)
